The record followed here is patent US20060024264A1, “Antimicrobial copolymers and uses thereof” (priority 2004, published 2006).

Broadly, the MIC is the lowest concentration found to suppress growth.

The subject of this experiment is E. coli. Briefly: Antimicrobial assays (MIC, cell growth by optical density at 595 nm). It is filed as cell-based. The note with it: Escherichia coli; incubation time 18 hours; 2-fold dilution series 500-3.9 μg/mL. As to the method: Antimicrobial assays. Each polymer was dissolved in DMSO (5 mg/mL). […] The polymer solutions with E. coli were incubated at 36° C. for 18 hours, and cell growth was measured by optical density at λ=595 nm (Liu, D., et al., Angew. Chem. Int. Ed., 43:1158 (2004); Tew, G. N., et al., PNAS 99:5110 (2002)).

For the compound `C=C(C)C(=O)OCCN.Cl` [Monomer, 2-aminoethyl methacrylate hydrochloride], the MIC is > 500 µg/mL.
